Reference: PubChem BioAssay AID248 (DTP/NCI, 2004)
Inconclusive results and toxic doses are left out. Rule as the data show it: active = T/C of 150% or more; inactive = T/C below 125%.

Test system: L1210 leukemia ip in BDF1 mice, survival T/C
Experiment: NCI In Vivo Anticancer Drug Screen. Data for tumor model L1210 Leukemia (intraperitoneal) in B6D2F1 (BDF1) mice
Conditions: endpoint: mean survival time, higher = longer survival
Outline: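 Value reflects the ratio of survival in compound-treated mice to survival in vehicle-treated controls, with both groups carrying the same transplanted tumor.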

[1] = dose: 25.0 mg/kg/injection, schedule: Q04DX002 (ip), vehicle: Klucel (hydroxypropylcellulose) (HPC)
[2] = dose: 50.0 mg/kg/injection, schedule: Q04DX002 (ip), vehicle: Klucel (hydroxypropylcellulose) (HPC)
[3] = dose: 100.0 mg/kg/injection, schedule: Q04DX002 (ip), vehicle: Klucel (hydroxypropylcellulose) (HPC)
[4] = dose: 100.0 mg/kg/injection, schedule: Q01DX001 (ip), vehicle: other
[5] = dose: 200.0 mg/kg/injection, schedule: Q01DX001 (ip), vehicle: other
[6] = dose: 100.0 mg/kg/injection, schedule: Q01DX001 (ip), vehicle: saline
[7] = dose: 200.0 mg/kg/injection, schedule: Q01DX001 (ip), vehicle: saline
[8] = dose: 100.0 mg/kg/injection, schedule: Q04DX003 (ip), vehicle: Klucel (hydroxypropylcellulose) (HPC)
[9] = dose: 200.0 mg/kg/injection, schedule: Q04DX003 (ip), vehicle: Klucel (hydroxypropylcellulose) (HPC)
[10] = dose: 400.0 mg/kg/injection, schedule: Q04DX003 (ip), vehicle: Klucel (hydroxypropylcellulose) (HPC)

Measured: T/C

Clc1ccc(-c2ncnc3c2Cc2ccccc2-3)cc1
inactive: dose: 100.0 mg/kg/injection, schedule: Q01DX009 (ip), vehicle: saline sonified 98 % of control | dose: 100.0 mg/kg/injection, schedule: Q04DX003 (ip), vehicle: saline sonified 99 % of control | dose: 200.0 mg/kg/injection, schedule: Q01DX009 (ip), vehicle: saline sonified 98 % of control | dose: 200.0 mg/kg/injection, schedule: Q04DX003 (ip), vehicle: saline sonified 99 % of control | dose: 400.0 mg/kg/injection, schedule: Q01DX009 (ip), vehicle: saline sonified 97 % of control | dose: 400.0 mg/kg/injection, schedule: Q04DX003 (ip), vehicle: saline sonified 96 % of control

CC1Oc2ccccc2-c2c(-c3ccccc3)nnc(-c3ccccc3)c21 (stereo not drawn)
inactive: dose: 100.0 mg/kg/injection, schedule: Q04DX003 (ip), vehicle: gum acacia 95 % of control | dose: 200.0 mg/kg/injection, schedule: Q04DX003 (ip), vehicle: gum acacia 102 % of control | dose: 400.0 mg/kg/injection, schedule: Q04DX003 (ip), vehicle: gum acacia 98 % of control

c1cc(C[N+]23CN4CN(CN(C4)C2)C3)cs1
inactive: dose: 25.0 mg/kg/injection, schedule: Q04DX003 (ip), vehicle: saline 93 % of control | dose: 50.0 mg/kg/injection, schedule: Q04DX003 (ip), vehicle: saline 95 % of control

CC12CCC3=C(CCc4cc(O)ccc43)C1CCC2=O (stereo not drawn)
inactive: dose: 75.0 mg/kg/injection, schedule: Q01DX001 (ip), vehicle: steriod suspending solution 91 % of control | dose: 150.0 mg/kg/injection, schedule: Q01DX001 (ip), vehicle: steriod suspending solution 96 % of control | dose: 300.0 mg/kg/injection, schedule: Q01DX001 (ip), vehicle: steriod suspending solution 101 % of control

Cc1ccc(S(=O)(=O)OC(c2ccccc2)c2ccccc2)cc1
inactive: [1] 97 % of control | [2] 97 % of control | [3] 93 % of control

O=C1NC(=O)C(c2ccccc2)O1 (stereo not drawn)
inactive: [4] 92 % of control | [5] 103 % of control | dose: 400.0 mg/kg/injection, schedule: Q01DX001 (ip), vehicle: other 97 % of control

O=C(NCc1ccc(Cl)cc1)Nc1cccc(F)c1
inactive: dose: 100.0 mg/kg/injection, schedule: Q01DX009 (ip), vehicle: gum acacia 105 % of control | dose: 200.0 mg/kg/injection, schedule: Q01DX009 (ip), vehicle: gum acacia 86 % of control | dose: 400.0 mg/kg/injection, schedule: Q01DX009 (ip), vehicle: gum acacia 98 % of control

CCC(C)NNCCO (stereo not drawn)
inactive: dose: 50.0 mg/kg/injection, schedule: Q01DX001 (ip), vehicle: saline 97 % of control | [6] 103 % of control | [7] 100 % of control

CCNC(=O)C1C(c2ccccc2)C1c1ccccc1 (stereo not drawn)
inactive: [1] 97 % of control | [2] 102 % of control | [3] 102 % of control

O=C(Nc1cccc2ccccc12)C(F)(F)F
inactive: [6] 93 % of control | dose: 100.0 mg/kg/injection, schedule: Q01DX009 (ip), vehicle: saline with Tween-80 98 % of control | dose: 100.0 mg/kg/injection, schedule: Q04DX003 (ip), vehicle: saline with Tween-80 90 % of control | dose: 200.0 mg/kg/injection, schedule: Q01DX009 (ip), vehicle: saline with Tween-80 104 % of control | dose: 200.0 mg/kg/injection, schedule: Q04DX003 (ip), vehicle: saline with Tween-80 95 % of control | dose: 400.0 mg/kg/injection, schedule: Q01DX009 (ip), vehicle: saline with Tween-80 98 % of control | dose: 400.0 mg/kg/injection, schedule: Q04DX003 (ip), vehicle: saline with Tween-80 93 % of control

C[N+](C)(CCN1C(=O)c2ccc3c4c(ccc(c24)C1=O)C(=O)N(CC[N+](C)(C)Cc1ccccc1)C3=O)Cc1ccccc1
inactive: dose: 0.1 mg/kg/injection, schedule: Q01DX001 (ip), vehicle: saline 105 % of control | dose: 0.2 mg/kg/injection, schedule: Q01DX001 (ip), vehicle: saline 101 % of control | dose: 0.4 mg/kg/injection, schedule: Q01DX001 (ip), vehicle: saline 110 % of control | dose: 0.78 mg/kg/injection, schedule: Q01DX001 (ip), vehicle: saline 106 % of control

O=c1cc(Nc2cccc3cc4ccccc4cc23)[nH]c(=O)[nH]1
inactive: dose: 38.0 mg/kg/injection, schedule: Q01DX001 (ip), vehicle: Klucel (hydroxypropylcellulose) (HPC) 93 % of control | dose: 75.0 mg/kg/injection, schedule: Q01DX001 (ip), vehicle: Klucel (hydroxypropylcellulose) (HPC) 93 % of control | dose: 150.0 mg/kg/injection, schedule: Q01DX001 (ip), vehicle: Klucel (hydroxypropylcellulose) (HPC) 90 % of control

Cc1ccc(-n2c(O)c(N=Nc3ccc(Br)cc3)c(=O)n(-c3ccc(Br)cc3)c2=S)cc1
inactive: dose: 50.0 mg/kg/injection, schedule: Q01DX001 (ip), vehicle: Klucel (hydroxypropylcellulose) (HPC) 100 % of control | dose: 100.0 mg/kg/injection, schedule: Q01DX001 (ip), vehicle: Klucel (hydroxypropylcellulose) (HPC) 109 % of control | dose: 200.0 mg/kg/injection, schedule: Q01DX001 (ip), vehicle: Klucel (hydroxypropylcellulose) (HPC) 106 % of control

C1CC(C2OCOC3COCOC32)OO1 (stereo not drawn)
inactive: dose: 222.0 mg/kg/injection, schedule: Q01DX Z (ip), vehicle: methylcellulose (MC) 89 % of control | dose: 333.0 mg/kg/injection, schedule: Q01DX Z (ip), vehicle: methylcellulose (MC) 104 % of control | dose: 500.0 mg/kg/injection, schedule: Q01DX Z (ip), vehicle: methylcellulose (MC) 92 % of control

Cc1c(NC(=O)Nc2cccc(Cl)c2)nc(Br)c2ccccc12
inactive: dose: 100.0 mg/kg/injection, schedule: Q04DX002 (ip), vehicle: saline with Tween-80 101 % of control | dose: 200.0 mg/kg/injection, schedule: Q04DX002 (ip), vehicle: saline with Tween-80 96 % of control

CC1CC(=O)NC(N)=N1 (stereo not drawn)
inactive: dose: 100.0 mg/kg/injection, schedule: Q01DX Z (ip), vehicle: saline 110 % of control | dose: 200.0 mg/kg/injection, schedule: Q01DX Z (ip), vehicle: saline 92 % of control

O=[N+]([O-])c1ccc(Cl)c(OCCCBr)c1
inactive: [8] 108 % of control | [9] 95 % of control | [10] 94 % of control

Cc1cc([N+](=O)[O-])c2nnnn2c1
inactive: [4] 108 % of control | [5] 90 % of control

CC(=O)NC1=C(Oc2ccc(C)cc2)C(=O)c2ccccc2C1=O
inactive: dose: 75.0 mg/kg/injection, schedule: Q01DX001 (ip), vehicle: saline 98 % of control | dose: 150.0 mg/kg/injection, schedule: Q01DX001 (ip), vehicle: saline 96 % of control

O=C1CCC23/C=C/C(=O)NCCCCNCCCNC(=O)/C=C/c4ccc(c2c4)OC3C1 (stereo not drawn)
inactive: dose: 100.0 mg/kg/injection, schedule: Q01DX001 (ip), vehicle: saline with Tween-80 101 % of control | dose: 200.0 mg/kg/injection, schedule: Q01DX001 (ip), vehicle: saline with Tween-80 95 % of control | dose: 400.0 mg/kg/injection, schedule: Q01DX001 (ip), vehicle: saline with Tween-80 91 % of control

CCCCS/C=C\SCCCC
inactive: dose: 100.0 mg/kg/injection, schedule: Q04DX002 (sc), vehicle: olive oil, sesame oil, peanut oil 107 % of control | dose: 200.0 mg/kg/injection, schedule: Q04DX002 (sc), vehicle: olive oil, sesame oil, peanut oil 104 % of control | dose: 400.0 mg/kg/injection, schedule: Q04DX002 (sc), vehicle: olive oil, sesame oil, peanut oil 104 % of control

C#CC(C)(C)CC
inactive: dose: 100.0 mg/kg/injection, schedule: Q01DX009 (ip), vehicle: saline 111 % of control | dose: 200.0 mg/kg/injection, schedule: Q01DX009 (ip), vehicle: saline 97 % of control | dose: 400.0 mg/kg/injection, schedule: Q01DX009 (ip), vehicle: saline 122 % of control

O=C1c2ccccc2-c2cc(Br)c(NC(=O)C(Cl)Cl)cc21
inactive: dose: 100.0 mg/kg/injection, schedule: Q01DX001 (ip), vehicle: carboxymethylcellulose (CMC) 115 % of control | dose: 200.0 mg/kg/injection, schedule: Q01DX001 (ip), vehicle: carboxymethylcellulose (CMC) 98 % of control | dose: 400.0 mg/kg/injection, schedule: Q01DX001 (ip), vehicle: carboxymethylcellulose (CMC) 98 % of control

Cc1cc(C)c2c(C#N)cn(-c3ccc(Cl)cc3)c2n1
inactive: [6] 87 % of control | [7] 97 % of control | dose: 400.0 mg/kg/injection, schedule: Q01DX001 (ip), vehicle: saline 91 % of control

COC(=O)C(CCc1cc(OC)c(OC)c(OC)c1)C(C(=O)OC)C(=O)OC (stereo not drawn)
inactive: [8] 87 % of control | [9] 94 % of control | [10] 89 % of control
